These results are taken from BindingDB's records for doi:10.7270/Q2ZC817P (The Scripps Research Institute Molecular Screening Center, 2007).

Structures are written as SMILES.

The target in one experiment is Sphingosine 1-phosphate receptor 1 (Homo sapiens, UniProt P21453). The experiment can be described thus: S1P1 agonism potentiation – cell-based, potentiator mode, 60K MLSMR set, dose response (AID 466).
Chain of Sphingosine 1-phosphate receptor 1 (P21453 whole entry): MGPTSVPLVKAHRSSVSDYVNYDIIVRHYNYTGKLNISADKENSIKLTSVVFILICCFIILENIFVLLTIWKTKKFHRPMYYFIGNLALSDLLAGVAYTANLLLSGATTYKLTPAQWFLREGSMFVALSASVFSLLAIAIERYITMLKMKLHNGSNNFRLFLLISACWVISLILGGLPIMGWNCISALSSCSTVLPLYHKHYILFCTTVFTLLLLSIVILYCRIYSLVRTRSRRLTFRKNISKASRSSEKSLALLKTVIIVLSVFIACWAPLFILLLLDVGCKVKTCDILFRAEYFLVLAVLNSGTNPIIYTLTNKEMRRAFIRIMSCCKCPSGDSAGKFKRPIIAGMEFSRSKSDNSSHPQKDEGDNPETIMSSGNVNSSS
Conditions: not given
As to `Cc1ccccc1-c1noc(-c2ccc(O)cc2)n1` [4-[3-(2-methylphenyl)-2H-1,2,4-oxadiazol-5-ylidene]-1-cyclohexa-2,5-dienone], the EC50 worked out at 8.25 µM.

For `c1ccc(-c2ccc(-c3nc(-c4ccncc4)no3)cc2)cc1` [5-(4-phenylphenyl)-3-(4-pyridyl)-1,2,4-oxadiazole], the EC50 worked out at 8.31 µM.

As to `O=C(Nc1ccc(Cl)cc1)N1CCC(c2nc(-c3ccc(F)cc3)no2)CC1` [4-[3-(4-Fluoro-phenyl)-[1,2,4]oxadiazol-5-yl]-piperidine-1-carboxylic acid (4-chloro-phenyl)-amide], the EC50 is 5.9 µM.

`Cc1cc(-c2nnc(-c3ccccc3)c(-c3ccccc3)n2)c(C)o1` [3-(2,5-dimethyl-3-furanyl)-5,6-diphenyl-1,2,4-triazine]: the EC50 was determined as 6.75 µM.

On to `CCc1ccc2oc(-c3cc(N)cc(C)c3O)nc2c1` [(6E)-4-amino-6-(5-ethyl-3H-1,3-benzoxazol-2-ylidene)-2-methyl-1-cyclohexa-2,4-dienone], for which the EC50 was 11.6 µM.

For `CCc1ccc(-c2nc(-c3ccncc3)no2)cc1` [5-(4-ethylphenyl)-3-(4-pyridyl)-1,2,4-oxadiazole], the EC50 is 4.41 µM.

Consider `CCOC(=O)CN(C(=O)CSc1nnc(-c2cccc(OC)c2)o1)c1ccc(F)cc1` [((4-Fluoro-phenyl)-{2-[5-(3-methoxy-phenyl)-[1,3,4]oxadiazol-2-ylsulfanyl]-acetyl}-amino)-acetic acid ethyl ester], for which the EC50 amounted to 2.11 µM.

Regarding `COc1ccccc1-n1nnnc1S(=O)(=O)Cc1ccc(Cl)cc1` [5-(4-chlorobenzyl)sulfonyl-1-(2-methoxyphenyl)tetrazole], the EC50 amounted to 3.77 µM.

With `Cc1csc(NC(=O)C(Cc2ccccc2)n2cccc2)n1` (centres undefined) [MLS000119019], the EC50 was 2.28 µM.

`CCN(CC)C(=O)C1CCN(S(=O)(=O)c2ccc3oc4ccccc4c3c2)CC1` [1-(2-dibenzofuranylsulfonyl)-N,N-diethyl-4-piperidinecarboxamide]: the EC50 is over 30 µM.

In the case of `CC(C)c1ccc2oc(-c3ccc(N)cc3)nc2c1` [4-(5-propan-2-yl-1,3-benzoxazol-2-yl)aniline], the EC50 was 2.14 µM.

Turning to `Clc1ccc(OCCN2CCN(c3ncnc4sccc34)CC2)cc1` [4-[4-[2-(4-chloranylphenoxy)ethyl]piperazin-1-yl]thieno[2,3-d]pyrimidine], the EC50 amounted to 0.108 µM.

With `COc1ccccc1OCCCCCc1c(C)n[nH]c1C` [SMR000103101], the EC50 amounted to 8.22 µM.

As to `CC(=O)Nc1ccccc1OCC(=O)c1cc(C)n(Cc2cccs2)c1C` [MLS000056239], the EC50 is 0.223 µM.

Consider `CC(C)(C)SCCNS(=O)(=O)c1ccccc1` [MLS000112230], for which the EC50 was over 95 µM.

Turning to `O=C(CSc1nnc(-c2c[nH]c3ccccc23)o1)N1c2ccccc2CCc2ccccc21`, the EC50 was found to be 7.48 µM.

Regarding `COc1ccc(NC(=O)c2cc(-c3cccs3)on2)cc1OC` [MLS000087261], the EC50 stood at 5.28 µM.

For the compound `CCOc1ccc(-c2nnc(-c3cccs3)o2)cc1OCC` [2-(3,4-Diethoxy-phenyl)-5-thiophen-2-yl-[1,3,4]oxadiazole], the concentration giving a half-maximal response (EC50) is 5.58 µM.

Turning to `COc1ccc(C(=O)C2C(=O)C(=O)N(CC3CCCO3)C2c2cccc(OC)c2)cc1` (centres undefined) [(4Z)-4-[hydroxy-(4-methoxyphenyl)methylene]-5-(3-methoxyphenyl)-1-(tetrahydrofurfuryl)pyrrolidine-2,3-quinone], the EC50 is over 95 µM.

`Cc1ccc(-c2n[nH]c(=S)n2C)cc1`: the EC50 was over 95 µM.

Regarding `Clc1ccc(CSc2nnc(-c3ccncc3)o2)cc1` [2-[(4-chlorobenzyl)thio]-5-(4-pyridyl)-1,3,4-oxadiazole], the EC50 turned out to be 3.58 µM.

As for `CC(C)OCCCNc1ncnc2c1[nH]c1ccc(F)cc12`, the 50% effective concentration (EC50) is 5.48 µM.

On to `O=C(Nc1cccc(C(F)(F)F)c1)C1CCCN1S(=O)(=O)c1cccc2cccnc12` (centres undefined) [1-(8-quinolinylsulfonyl)-N-[3-(trifluoromethyl)phenyl]-2-pyrrolidinecarboxamide], for which the EC50 was determined as 5.41 µM.

Consider `Cc1nc2ccc3nc(NC(=O)C4COc5ccccc5O4)sc3c2s1` (centres undefined) [MLS000100909], for which the EC50 came to 4.01 µM.

As for `CCOC(=O)c1cnc(-n2nc(C)cc2C)nc1NC1CCCCC1` [4-(cyclohexylamino)-2-(3,5-dimethyl-1-pyrazolyl)-5-pyrimidinecarboxylic acid ethyl ester], the EC50 was determined as 5.91 µM.

Consider `CC(=O)Nc1cc(OC(C)=O)c2nonc2c1OC(C)=O` [Acetic acid 7-acetoxy-5-acetylamino-benzo[1,2,5]oxadiazol-4-yl ester], for which the EC50 turned out to be 5.71 µM.

Turning to `CCCC(=O)Nc1ccc(-c2nc3cc(C)ccc3o2)cc1` [MLS000061826], the EC50 was determined as 6.36 µM.

Take `CC(C)(C)OC(=O)N[C@@H](Cc1ccccc1)c1nnc(S(=O)(=O)Cc2ccccc2)o1` [SMR000047857]: the EC50 stood at 5.33 µM.

Consider `Cc1ccc2oc(-c3ccc(NC(=O)c4cccnc4)cc3)nc2c1` [MLS000068975], for which the EC50 stood at 2.81 µM.

`CCCC(=O)Nc1ccc2oc(-c3ccc(OC)c(Br)c3)nc2c1` [MLS000042482]: the EC50 was found to be 4.14 µM.

On to `COC(=O)Cc1sc(=O)[nH]c1Nc1ccccc1` [MLS000111966], for which the EC50 was over 95 µM.

`Oc1ccc(-c2nc(-c3ccc(O)c(O)c3)cs2)cc1`: the EC50 came to 13.1 µM.

As for `COc1ccc(-c2noc(-c3cc(C)cc(C)c3)n2)cc1OC` [3-(3,4-dimethoxyphenyl)-5-(3,5-dimethylphenyl)-1,2,4-oxadiazole], the EC50 amounted to 1.01 µM.

Take `CCOc1ccc(-c2noc(-c3cccnc3)n2)cc1OC` [3-(4-ethoxy-3-methoxy-phenyl)-5-(3-pyridyl)-1,2,4-oxadiazole]: the EC50 is 0.77 µM.

`Cc1ccc(-c2nc(CSCC(=O)N3CCN(c4ccccn4)CC3)c(C)o2)cc1` [2-[[5-methyl-2-(4-methylphenyl)-1,3-oxazol-4-yl]methylsulfanyl]-1-(4-pyridin-2-ylpiperazin-1-yl)ethanone]: the EC50 stood at 5.99 µM.

For `COc1ccc(CN=O)cc1COc1ccc(NC(C)=O)cc1` [MLS000111933], the EC50 was over 95 µM.

Take `Cc1cc(C(=O)CC#N)c(C)n1-c1ccc(OC(F)F)cc1` [3-[1-[4-(difluoromethoxy)phenyl]-2,5-dimethyl-3-pyrrolyl]-3-oxopropanenitrile]: the EC50 is over 30 µM.

Consider `COc1ccc2[nH]c(=O)c3c(c2c1)OC(C)(C)C=C3`, for which the EC50 was found to be 6.25 µM.

For `COc1ccccc1Oc1ccc2c(c1)C(=O)N(c1ccc(O)cc1)C2=O` [2-(4-hydroxyphenyl)-5-(2-methoxyphenoxy)isoindole-1,3-dione], the EC50 worked out at 0.151 µM.

In the case of `Cc1cc(C(=O)CSc2nnc(-c3cccnc3)n2-c2ccccc2F)c(C)n1C` [SMR000064090], the EC50 came to 0.87 µM.

On to `CCc1cc2c(N3CCN(c4ccccc4)CC3)ncnc2s1` [6-ethyl-4-(4-phenyl-1-piperazinyl)thieno[2,3-d]pyrimidine], for which the EC50 stood at 8.06 µM.

Take `CCOc1ccc(C(=O)Nc2ccc(Cl)cn2)cc1Cl` [3-chloranyl-N-(5-chloranylpyridin-2-yl)-4-ethoxy-benzamide]: the EC50 was determined as 4.76 µM.

Turning to `COC(=O)c1sc(NC(=O)c2ccc(OC)cc2OC)nc1C` [2-[(2,4-dimethoxybenzoyl)amino]-4-methyl-thiazole-5-carboxylic acid methyl ester], the EC50 amounted to 7.76 µM.

As for `O=S1(=O)C=C(Sc2nc3ccccc3s2)c2ccccc21` [2-[(1,1-dioxido-1-benzothien-3-yl)thio]-1,3-benzothiazole], the EC50 is over 10 µM.

For `Clc1ccc(-n2nnnc2Sc2ncnc3sccc23)cc1` [SMR000066808], the EC50 is 5.29 µM.

For `c1ccc(CN2CCN(c3ncnc4c3[nH]c3ccccc34)CC2)cc1` [MLS000078384], the EC50 is 3.95 µM.

For the compound `Cn1c(C(=O)N2CCc3ccccc3C2)cc2oc3ccccc3c21` [2-(3,4-dihydroisoquinolin-2(1H)-ylcarbonyl)-1-methyl-1H-[1]benzofuro[3,2-b]pyrrole], the EC50 is over 30 µM.

With `CCC(NCc1ccc2c(c1)OCO2)=C1C(=O)NC(=O)N(C2CCCCC2)C1=O` [(5E)-5-[1-(1,3-benzodioxol-5-ylmethylamino)propylidene]-1-cyclohexyl-1,3-diazinane-2,4,6-trione], the EC50 amounted to 8.66 µM.

As for `CCn1nc(-c2ccccc2)nc2c(=O)n(C)c(=O)nc1-2` [1-Ethyl-6-methyl-3-phenyl-1H-pyrimido[5,4-e][1,2,4]triazine-5,7-dione], the EC50 came out at 4.29 µM.

The experiment is the same for the next values; noted with them: inactive by the depositor's call.
As to `CCNc1nc2c(c(=O)n(C)c(=O)n2C)n1Cc1ccc(Cl)cc1` [7-(4-chlorobenzyl)-8-(ethylamino)-1,3-dimethyl-xanthine], the EC50 was found to be 14.4 µM.

For the compound `Clc1ccc(CCNc2[nH]cnc3ncnc2-3)cc1` [SMR000017624], the EC50 was found to be 10.6 µM.

As for `Cc1cccc(-c2nc(C#N)c(NC3CCCCC3)o2)c1` [5-(cyclohexylamino)-2-(3-methylphenyl)-1,3-oxazole-4-carbonitrile], the EC50 was 11.8 µM.

Regarding `Nn1c(Nc2ccccc2)nc2sc3c(c2c1=O)CCC3` [2-amino-3-anilino-7,8-dihydro-6H-cyclopenta[2,3]thieno[2,4-b]pyrimidin-1-one], the EC50 came to 21.7 µM.

As for `Cc1cccc(-c2nc(CSCC(=O)N3CCN(c4ccccn4)CC3)c(C)o2)c1` [1-[({[5-methyl-2-(3-methylphenyl)-1,3-oxazol-4-yl]methyl}thio)acetyl]-4-pyridin-2-ylpiperazine], the EC50 was 12.2 µM.

Consider `CCC(=O)Nc1ccc2c(c1)C(=O)N(C1CCCCC1)C2=O` [MLS000099936], for which the EC50 came out at 58 µM.

Regarding `CC(=O)c1ccc(N2CCN(c3ccc(C(F)(F)F)cn3)CC2)cc1` [1-[4-[4-[5-(trifluoromethyl)-2-pyridinyl]-1-piperazinyl]phenyl]ethanone], the EC50 came to 37 µM.

`CCN(CC)C(=O)Oc1ccc2c(=O)c(-c3ccccc3)coc2c1` [(4-oxidanylidene-3-phenyl-chromen-7-yl) N,N-diethylcarbamate]: the EC50 came to 27.2 µM.

Turning to `CCc1ccc(N(CC)c2ncnc3nc[nH]c23)cc1`, the EC50 was determined as 14.7 µM.

Take `COc1ccc(-n2c(C)c(C(C)=O)c3cc(O)ccc32)cc1` [1-[1-(4-methoxyphenyl)-2-methyl-5-oxidanyl-indol-3-yl]ethanone]: the EC50 worked out at 24.2 µM.

Usually EC50 stands for the concentration needed to bring the measured effect to its halfway point.
